Consider four compounds from paper PMC10004634 (PLOS ONE, 2023).

Like-named read-outs stand apart in the source and are kept apart here.

Some targets named below: MST1R (Homo sapiens, UniProt Q04912); LTK (Homo sapiens, UniProt P29376); FLT4 (Homo sapiens, UniProt P35916); FLT1 (Homo sapiens, UniProt P17948); PIK3CA(I800L) (Homo sapiens, UniProt P42336, I800L).
Assay in all cases: biochemical
Common to all, as to set-up: KINOMEscan scanMAX competition binding, DNA-tagged kinases, qPCR read-out, percent control at 300 nM

The next test addresses T1, JNK1 (Homo sapiens, UniProt P45983).
T1 construct: gene MAPK8

For a further test, the target named is T2, TYRO3 (Homo sapiens, UniProt Q06418).
T2 sequence (Q06418 1-890): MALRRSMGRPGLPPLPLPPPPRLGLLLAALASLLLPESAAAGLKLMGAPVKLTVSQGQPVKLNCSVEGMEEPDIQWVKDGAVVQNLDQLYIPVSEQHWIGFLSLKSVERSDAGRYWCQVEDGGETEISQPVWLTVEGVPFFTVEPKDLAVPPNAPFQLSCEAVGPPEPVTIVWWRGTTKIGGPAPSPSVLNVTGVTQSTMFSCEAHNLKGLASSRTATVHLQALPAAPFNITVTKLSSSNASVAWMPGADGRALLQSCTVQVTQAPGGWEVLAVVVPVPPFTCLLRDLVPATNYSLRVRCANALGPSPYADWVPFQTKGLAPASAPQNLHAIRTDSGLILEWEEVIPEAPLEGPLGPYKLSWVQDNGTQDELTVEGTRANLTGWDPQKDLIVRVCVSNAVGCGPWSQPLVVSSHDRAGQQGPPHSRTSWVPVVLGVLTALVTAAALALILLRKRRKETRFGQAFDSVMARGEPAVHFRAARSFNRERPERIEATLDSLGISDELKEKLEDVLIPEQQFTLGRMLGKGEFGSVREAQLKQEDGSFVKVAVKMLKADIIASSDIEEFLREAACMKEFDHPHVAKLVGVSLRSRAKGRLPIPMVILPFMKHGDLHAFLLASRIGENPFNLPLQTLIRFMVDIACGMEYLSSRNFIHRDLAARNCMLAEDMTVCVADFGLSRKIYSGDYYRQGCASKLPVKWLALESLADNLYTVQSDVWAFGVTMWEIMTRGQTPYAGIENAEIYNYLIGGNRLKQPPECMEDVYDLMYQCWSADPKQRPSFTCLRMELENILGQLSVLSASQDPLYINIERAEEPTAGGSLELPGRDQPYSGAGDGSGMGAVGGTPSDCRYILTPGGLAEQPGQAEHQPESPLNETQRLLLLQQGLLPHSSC

The target of another test is T3, TAOK1 (Homo sapiens, UniProt Q7L7X3).
T3 sequence (Q7L7X3 1-1001): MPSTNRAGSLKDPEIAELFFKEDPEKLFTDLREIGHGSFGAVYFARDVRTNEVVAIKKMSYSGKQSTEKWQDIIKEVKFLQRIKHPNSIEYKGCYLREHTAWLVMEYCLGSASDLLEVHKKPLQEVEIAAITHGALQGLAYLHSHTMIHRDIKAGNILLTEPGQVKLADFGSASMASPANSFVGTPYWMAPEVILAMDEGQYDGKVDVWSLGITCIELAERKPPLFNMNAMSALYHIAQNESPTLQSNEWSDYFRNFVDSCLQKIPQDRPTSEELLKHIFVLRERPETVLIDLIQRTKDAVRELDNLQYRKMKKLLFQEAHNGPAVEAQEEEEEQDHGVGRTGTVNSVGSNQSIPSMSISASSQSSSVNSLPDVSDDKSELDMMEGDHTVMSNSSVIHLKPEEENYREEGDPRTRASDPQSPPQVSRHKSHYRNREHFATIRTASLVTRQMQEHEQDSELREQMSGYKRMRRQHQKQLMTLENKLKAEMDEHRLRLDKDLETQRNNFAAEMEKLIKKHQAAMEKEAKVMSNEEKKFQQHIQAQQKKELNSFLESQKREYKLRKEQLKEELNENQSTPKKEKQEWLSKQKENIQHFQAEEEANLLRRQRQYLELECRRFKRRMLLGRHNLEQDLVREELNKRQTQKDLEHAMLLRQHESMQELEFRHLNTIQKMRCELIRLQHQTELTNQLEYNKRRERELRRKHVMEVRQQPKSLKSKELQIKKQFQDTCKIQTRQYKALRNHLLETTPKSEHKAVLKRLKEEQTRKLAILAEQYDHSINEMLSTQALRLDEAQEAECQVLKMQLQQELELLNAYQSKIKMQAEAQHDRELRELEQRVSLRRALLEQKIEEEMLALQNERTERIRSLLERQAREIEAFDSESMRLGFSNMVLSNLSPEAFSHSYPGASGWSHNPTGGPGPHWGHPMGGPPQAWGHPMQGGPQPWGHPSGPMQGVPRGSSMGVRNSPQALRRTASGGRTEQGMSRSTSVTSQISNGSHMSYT

The mark [1] stands for this setting: read-out: Percent control / Acalabrutinib.
Where [2] appears, read: read-out: Percent control / Ibrutinib.
Setting [3] is: read-out: Percent control / Tirabrutinib.
Where [4] appears, read: read-out: Percent control / Zanubrutinib.

Chain of PIK3CA(I800L) (P42336 whole entry I800L): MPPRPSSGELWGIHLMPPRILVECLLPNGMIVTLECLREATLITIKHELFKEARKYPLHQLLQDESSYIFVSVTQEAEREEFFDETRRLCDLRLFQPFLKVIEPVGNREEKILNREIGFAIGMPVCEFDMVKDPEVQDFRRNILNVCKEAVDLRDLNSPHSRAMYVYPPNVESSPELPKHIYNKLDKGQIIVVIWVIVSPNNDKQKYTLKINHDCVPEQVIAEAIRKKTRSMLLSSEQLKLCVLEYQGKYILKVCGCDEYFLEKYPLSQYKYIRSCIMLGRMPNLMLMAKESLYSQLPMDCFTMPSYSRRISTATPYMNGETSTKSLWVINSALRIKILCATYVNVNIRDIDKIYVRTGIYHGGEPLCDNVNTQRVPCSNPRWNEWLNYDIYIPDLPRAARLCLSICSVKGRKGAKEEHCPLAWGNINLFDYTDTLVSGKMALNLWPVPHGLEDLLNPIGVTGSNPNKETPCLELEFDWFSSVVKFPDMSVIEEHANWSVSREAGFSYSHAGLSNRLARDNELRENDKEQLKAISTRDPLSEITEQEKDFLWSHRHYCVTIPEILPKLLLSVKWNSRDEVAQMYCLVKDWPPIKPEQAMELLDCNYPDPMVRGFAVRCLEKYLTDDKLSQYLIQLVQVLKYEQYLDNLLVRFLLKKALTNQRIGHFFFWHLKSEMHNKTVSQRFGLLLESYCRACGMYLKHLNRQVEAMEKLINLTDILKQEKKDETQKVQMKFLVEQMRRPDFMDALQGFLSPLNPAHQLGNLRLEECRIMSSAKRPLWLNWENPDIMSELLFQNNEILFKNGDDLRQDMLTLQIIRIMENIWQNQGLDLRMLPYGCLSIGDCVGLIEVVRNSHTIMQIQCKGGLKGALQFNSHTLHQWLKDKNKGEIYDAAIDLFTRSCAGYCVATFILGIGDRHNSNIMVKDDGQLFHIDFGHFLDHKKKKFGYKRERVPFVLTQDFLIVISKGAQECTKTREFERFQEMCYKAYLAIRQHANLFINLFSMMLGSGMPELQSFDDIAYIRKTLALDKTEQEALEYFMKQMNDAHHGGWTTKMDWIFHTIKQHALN
Chain of LTK (P29376 whole entry): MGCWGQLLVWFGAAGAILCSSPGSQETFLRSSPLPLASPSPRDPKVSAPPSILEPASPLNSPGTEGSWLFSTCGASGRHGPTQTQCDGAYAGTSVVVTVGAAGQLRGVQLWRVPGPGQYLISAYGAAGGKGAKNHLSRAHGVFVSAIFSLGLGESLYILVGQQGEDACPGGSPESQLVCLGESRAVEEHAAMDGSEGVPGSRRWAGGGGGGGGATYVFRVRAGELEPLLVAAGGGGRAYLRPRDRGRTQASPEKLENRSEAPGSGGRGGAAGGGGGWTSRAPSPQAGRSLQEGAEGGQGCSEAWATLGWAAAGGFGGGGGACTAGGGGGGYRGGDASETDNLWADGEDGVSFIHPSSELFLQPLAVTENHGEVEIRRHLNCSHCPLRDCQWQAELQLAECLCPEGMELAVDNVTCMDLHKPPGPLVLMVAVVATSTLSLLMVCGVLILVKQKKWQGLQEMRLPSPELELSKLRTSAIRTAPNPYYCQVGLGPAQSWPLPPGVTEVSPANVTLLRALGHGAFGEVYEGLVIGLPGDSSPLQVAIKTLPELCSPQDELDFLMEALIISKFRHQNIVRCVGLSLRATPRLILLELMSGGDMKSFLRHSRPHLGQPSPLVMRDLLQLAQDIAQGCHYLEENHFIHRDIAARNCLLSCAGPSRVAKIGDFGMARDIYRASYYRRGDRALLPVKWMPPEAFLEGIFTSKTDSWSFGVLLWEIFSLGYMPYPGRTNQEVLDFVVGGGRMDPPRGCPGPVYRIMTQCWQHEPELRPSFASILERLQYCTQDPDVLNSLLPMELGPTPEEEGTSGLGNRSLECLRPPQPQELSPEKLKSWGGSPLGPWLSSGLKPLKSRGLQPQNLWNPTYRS
Chain of FLT1 (P17948 whole entry): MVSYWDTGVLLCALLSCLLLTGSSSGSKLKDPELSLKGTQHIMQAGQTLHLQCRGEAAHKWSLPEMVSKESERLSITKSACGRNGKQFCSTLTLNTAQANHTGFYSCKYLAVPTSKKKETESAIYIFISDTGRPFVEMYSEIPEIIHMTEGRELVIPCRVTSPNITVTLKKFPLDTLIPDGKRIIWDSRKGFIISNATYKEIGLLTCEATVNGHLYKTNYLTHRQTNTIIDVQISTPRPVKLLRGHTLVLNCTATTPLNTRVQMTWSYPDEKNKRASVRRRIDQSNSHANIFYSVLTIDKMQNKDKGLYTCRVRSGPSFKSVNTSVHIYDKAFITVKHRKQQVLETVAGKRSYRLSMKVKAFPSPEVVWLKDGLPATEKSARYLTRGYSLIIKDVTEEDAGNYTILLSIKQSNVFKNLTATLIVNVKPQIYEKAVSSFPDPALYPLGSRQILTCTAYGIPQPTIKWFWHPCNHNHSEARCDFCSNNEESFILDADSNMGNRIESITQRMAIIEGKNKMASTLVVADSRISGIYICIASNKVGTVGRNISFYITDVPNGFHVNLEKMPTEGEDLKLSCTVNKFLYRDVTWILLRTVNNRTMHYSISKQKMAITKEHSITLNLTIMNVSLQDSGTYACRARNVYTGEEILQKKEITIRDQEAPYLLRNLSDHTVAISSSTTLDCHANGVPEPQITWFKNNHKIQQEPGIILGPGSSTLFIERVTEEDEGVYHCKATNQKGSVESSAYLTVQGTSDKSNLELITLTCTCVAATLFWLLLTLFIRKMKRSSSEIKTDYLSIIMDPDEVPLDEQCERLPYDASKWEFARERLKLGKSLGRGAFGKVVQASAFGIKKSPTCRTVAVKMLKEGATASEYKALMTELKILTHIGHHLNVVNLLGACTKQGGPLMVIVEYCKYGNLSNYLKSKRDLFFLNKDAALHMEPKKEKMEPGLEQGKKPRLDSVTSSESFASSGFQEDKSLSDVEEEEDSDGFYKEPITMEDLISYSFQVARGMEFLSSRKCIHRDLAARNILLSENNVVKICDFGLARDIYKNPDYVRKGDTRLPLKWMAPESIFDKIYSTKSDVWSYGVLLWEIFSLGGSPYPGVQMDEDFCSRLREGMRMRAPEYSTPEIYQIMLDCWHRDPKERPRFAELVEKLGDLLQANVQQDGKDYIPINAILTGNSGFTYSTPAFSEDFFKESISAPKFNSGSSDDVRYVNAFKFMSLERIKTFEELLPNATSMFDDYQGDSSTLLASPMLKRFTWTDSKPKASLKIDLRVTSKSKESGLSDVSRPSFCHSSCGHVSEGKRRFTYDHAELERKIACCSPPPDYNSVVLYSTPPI
Chain of FLT4 (P35916 whole entry): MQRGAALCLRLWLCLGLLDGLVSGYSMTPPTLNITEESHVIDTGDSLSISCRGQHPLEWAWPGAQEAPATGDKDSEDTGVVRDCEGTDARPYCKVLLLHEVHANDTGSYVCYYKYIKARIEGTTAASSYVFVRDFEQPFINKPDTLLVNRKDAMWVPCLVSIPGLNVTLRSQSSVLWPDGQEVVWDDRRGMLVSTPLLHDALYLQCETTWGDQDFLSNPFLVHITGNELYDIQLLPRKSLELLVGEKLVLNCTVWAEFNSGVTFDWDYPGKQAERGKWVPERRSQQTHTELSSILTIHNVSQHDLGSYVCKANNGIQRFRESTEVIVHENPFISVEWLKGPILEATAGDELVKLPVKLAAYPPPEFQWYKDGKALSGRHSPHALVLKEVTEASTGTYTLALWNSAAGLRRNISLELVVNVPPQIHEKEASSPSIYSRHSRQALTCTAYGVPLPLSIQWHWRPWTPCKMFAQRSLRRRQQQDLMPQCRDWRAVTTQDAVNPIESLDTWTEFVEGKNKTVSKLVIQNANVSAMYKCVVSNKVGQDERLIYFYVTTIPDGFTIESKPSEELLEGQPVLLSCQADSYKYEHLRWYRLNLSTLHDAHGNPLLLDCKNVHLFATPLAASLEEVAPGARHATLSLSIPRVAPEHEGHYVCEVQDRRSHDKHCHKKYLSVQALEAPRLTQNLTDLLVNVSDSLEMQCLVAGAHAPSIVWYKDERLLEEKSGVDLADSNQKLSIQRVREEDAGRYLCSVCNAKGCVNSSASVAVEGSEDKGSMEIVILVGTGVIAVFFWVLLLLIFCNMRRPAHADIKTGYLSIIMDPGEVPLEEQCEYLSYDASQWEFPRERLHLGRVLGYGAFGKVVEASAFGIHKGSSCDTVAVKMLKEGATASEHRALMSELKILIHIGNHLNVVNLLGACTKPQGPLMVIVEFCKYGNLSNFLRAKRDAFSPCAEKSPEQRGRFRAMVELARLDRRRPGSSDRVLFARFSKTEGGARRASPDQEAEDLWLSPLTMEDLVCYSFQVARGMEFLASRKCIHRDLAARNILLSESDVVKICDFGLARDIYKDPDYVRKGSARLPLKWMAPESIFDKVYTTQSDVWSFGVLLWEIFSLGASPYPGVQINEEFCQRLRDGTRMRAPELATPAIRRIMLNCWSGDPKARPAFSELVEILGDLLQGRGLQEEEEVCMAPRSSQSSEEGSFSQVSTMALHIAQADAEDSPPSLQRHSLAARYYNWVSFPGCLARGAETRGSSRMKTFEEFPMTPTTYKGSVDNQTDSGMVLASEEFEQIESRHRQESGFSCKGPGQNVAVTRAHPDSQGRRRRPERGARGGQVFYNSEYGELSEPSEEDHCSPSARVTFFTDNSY
T1 sequence (P45983 whole entry): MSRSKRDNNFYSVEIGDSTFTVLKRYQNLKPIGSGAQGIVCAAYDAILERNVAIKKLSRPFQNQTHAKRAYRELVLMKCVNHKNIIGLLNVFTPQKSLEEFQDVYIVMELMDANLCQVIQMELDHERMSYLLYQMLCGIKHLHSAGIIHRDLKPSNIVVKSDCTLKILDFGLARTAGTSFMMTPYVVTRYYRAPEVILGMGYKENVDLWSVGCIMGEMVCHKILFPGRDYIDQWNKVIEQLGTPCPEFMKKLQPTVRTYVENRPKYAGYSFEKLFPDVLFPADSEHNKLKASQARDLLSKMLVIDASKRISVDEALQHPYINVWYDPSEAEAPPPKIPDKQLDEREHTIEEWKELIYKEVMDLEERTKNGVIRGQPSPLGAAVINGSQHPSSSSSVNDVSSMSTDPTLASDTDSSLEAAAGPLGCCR

For `CC#CC(=O)N1CCC[C@H]1c1nc(-c2ccc(C(=O)Nc3ccccn3)cc2)c2c(N)nccn12` [Acalabrutinib], the remaining binding at 0.3 µM was determined as 91% at MST1R (setting [1]); 100% at LTK (setting [1]); 96% on FLT4 (setting [1]); 89% at FLT1 (setting [1]); 93% on JNK1 (setting [1]).
As to `C=CC(=O)N1CCC[C@@H](n2nc(-c3ccc(Oc4ccccc4)cc3)c3c(N)ncnc32)C1` [Ibrutinib], the remaining binding at 0.3 µM at TYRO3 (setting [2]) was 61%; at PIK3CA(I800L) (setting [2]) it was 71%; at TAOK1 (setting [2]), 81%; at MST1R (setting [2]) it was 90%; on LTK (setting [2]), 78%; at FLT4 (setting [2]), 57%. Also, the remaining binding at 0.3 µM on FLT1 (setting [2]) came to 82%; at JNK1 (setting [2]), 96%.
For the compound `CC#CC(=O)N1CC[C@@H](n2c(=O)n(-c3ccc(Oc4ccccc4)cc3)c3c(N)ncnc32)C1` [Tirabrutinib], the remaining binding at 0.3 µM came to 99% on TYRO3 (setting [3]); 91% on PIK3CA(I800L) (setting [3]); 82% on TAOK1 (setting [3]); 98% at MST1R (setting [3]); 100% at LTK (setting [3]); 99% at FLT4 (setting [3]). The remaining binding at 0.3 µM is 74% on FLT1 (setting [3]) and 83% at JNK1 (setting [3]).
In the case of `C=CC(=O)N1CCC([C@@H]2CCNc3c(C(N)=O)c(-c4ccc(Oc5ccccc5)cc4)nn32)CC1` [Zanubrutinib], the remaining binding at 0.3 µM is 80% at TYRO3 (setting [4]); 68% at PIK3CA(I800L) (setting [4]); 63% on TAOK1 (setting [4]); 98% on MST1R (setting [4]); 92% on LTK (setting [4]); 100% at FLT4 (setting [4]). Also, the remaining binding at 0.3 µM at JNK1 (setting [4]) was found to be 100%.
